The conditions of data set [1]: Crystal; DTA.
Data set [2] is described as follows: Molar enthalpy of transition or fusion. Conditions: Crystal; DSC.

Numbers after ± are expanded uncertainties.

On to `Brc1cc(Br)c(Br)cc1Br` [1,2,4,5-tetrabromobenzene], for which, in data set [1], the Normal melting temperature is 181.4 ± 1.1 °C. Also, in data set [2], the “Molar enthalpy of transition or fusion” value was determined as 5.83 ± 0.598 kcal/mol.

In the case of `Brc1ccc(Br)c(Br)c1` [1,2,4-tribromobenzene], the Normal melting temperature in data set [1] was 44 ± 1.1 °C. Besides, the “Molar enthalpy of transition or fusion” value in data set [2] is 4.28 ± 0.43 kcal/mol.

As for `Brc1ccc(Br)cc1` [1,4-dibromobenzene], the Normal melting temperature in data set [1] came to 84.6 ± 1.1 °C. Further, the “Molar enthalpy of transition or fusion” value in data set [2] worked out at 4.45 ± 0.454 kcal/mol.

Regarding `Brc1c(Br)c(Br)c(Br)c(Br)c1Br` [hexabromobenzene], the Normal melting temperature in data set [1] was found to be 325.6 ± 1.1 °C. The “Molar enthalpy of transition or fusion” value in data set [2] is 5.88 ± 0.598 kcal/mol.

The values are drawn from the NIST ThermoML archive (doi:10.1021/je0342724).
